Key:
[1] = tested on: Dengue 4 virus MY01-22713; test: High-content imaging cell-based flavivirus immunodetection (HCl-CFI) assay, Dengue 4; settings: Dengue virus, A549, 48 h, read-out: Dengue 4 virus MY01-22713 in A549 using HCl [Inhibitor/IC50] Qualified AC50, A549 cells, 48 h, viral E protein expression
DENV-2 (strain TSV01) [2] = test: Antiviral in vivo efficacy in dengue mouse model; settings: oral gavage, 3 consecutive days, AG129 mice, qRT-PCR
Experimental: Antiviral In Vivo Efficacy in Dengue Mouse Model
AG129 mice (lacking IFN-α/β and IFN-γ receptors, (Schul, W. et al. 2007. J. Infect. Dis., 195, 665-74)) was obtained from Biological Resource Center (BRC), Singapore. Male and female AG129 mice aged 8 to 14 weeks (weighed 20-30 grams, n=6 per group) were used. Infection of DENV-2 (strain TSV01) was given intraperitoneally (500 μL, 1.4×10^7 pfu/mL). The DENV-2 strain TSVO1 was used in the mouse model and was propagated in C6/36 mosquito cells. Compounds were formulated (% w/w) in either 0.5% methylcellulose, 0.5% Tween and 99.0% deionized water or 20% polyethylene glycol (PEG300), 10% Cremophor RH40, and 70% 100 mM pH 3 citrate buffer (% v/v). Compounds were dosed immediately after infection through oral gavage for 3 consecutive days. Terminal blood sample (anticoagulant: K2EDTA) was obtained for viremia read-out by qRT-PCR as previously described (Santiago, G. A., et al. 2013. PLoS Negl. Trop. Dis., 7, e2311).

[3] = tested on: Dengue 2 virus MY97-10340; test: High-content imaging cell-based flavivirus immunodetection (HCl-CFI) assay, Dengue 2; settings: Dengue virus, A549, 48 h, read-out: Dengue 2 virus MY97-10340 in A549 using HCl [Inhibitor/IC50] Qualified AC50, A549 cells, MOI 0.3, 48 h, viral E protein expression
Method in brief: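 A549 cells infected at MOI 0.3, treated with 3-fold, 10-point compound dilutions for 48 h. After paraformaldehyde fixation, viral E protein immunostained with 4G2 antibody and nuclei counterstained; imaged by high-content imaging. EC50 = concentration reducing E protein expression by 50%, from dose-response curves.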

[4] = tested on: Dengue 1 virus MY97-10245; test: High-content imaging cell-based flavivirus immunodetection (HCl-CFI) assay, Dengue 1; settings: Dengue virus, A549, 48 h, read-out: Dengue 1 virus MY97-10245 in A549 using HCl [Inhibitor/IC50] Qualified AC50
[5] = tested on: Dengue 3 virus MY05-34640-WT-C6/36; test: High-content imaging cell-based flavivirus immunodetection (HCl-CFI) assay, Dengue 3; settings: Dengue virus, A549, 48 h, read-out: Dengue 3 virus MY05-34640-WT-C6/36 in A549 using HCl [Inhibitor/IC50] Qualified AC50
DENV-2 (strain TSV01) [6] = test: Antiviral in vivo efficacy in dengue mouse model; settings: 180 mg/kg single dose, oral gavage, AG129 mice, qRT-PCR

SMILES: CC1Cc2sc(NC(=O)Cc3ccc(S(N)(=O)=O)cc3)c(C#N)c2CN1Cc1cccc(F)c1 (centres unmarked) [Example 53, N-(3-cyano-5-(3-fluorobenzyl)-6-methyl-4,5,6,7-tetrahydrothieno[3,2-c]pyridin-2-yl)-2-(4-sulfamoylphenyl)acetamide]
- EC50 [1]: < 100 nM
- Log DENV-2 viremia reduction (DENV-2 (strain TSV01) [2]; 30 mg/kg b.i.d.): 0.80 Log
- Log DENV-2 viremia reduction (DENV-2 (strain TSV01) [2]; 100 mg/kg b.i.d.): 1.78 Log
- Log DENV-2 viremia reduction (DENV-2 (strain TSV01) [2]; 100 mg/kg q.d.): 1.06 Log
- EC50 [3]: < 100 nM
- EC50 [4]: 100 to 1000 nM
- EC50 [5]: < 100 nM

SMILES: CC1(C)Cc2sc(NC(=O)Cc3ccc(S(N)(=O)=O)cc3)c(C#N)c2CN1CC1CCCCC1 [Example 71, N-(3-cyano-5-(cyclohexylmethyl)-6,6-dimethyl-4,5,6,7-tetrahydrothieno[3,2-c]pyridin-2-yl)-2-(4-sulfamoylphenyl)acetamide]
- EC50 [1]: < 100 nM
- Log DENV-2 viremia reduction (DENV-2 (strain TSV01) [2]; 10 mg/kg b.i.d.): 0.51 Log
- Log DENV-2 viremia reduction (DENV-2 (strain TSV01) [2]; 30 mg/kg b.i.d.): 1.45 Log
- Log DENV-2 viremia reduction (DENV-2 (strain TSV01) [2]; 60 mg/kg q.d.): 1.54 Log
- Log DENV-2 viremia reduction (DENV-2 (strain TSV01) [2]; 100 mg/kg b.i.d.): 3.0 Log
- Log DENV-2 viremia reduction (DENV-2 (strain TSV01) [6]): 1.49 Log
- EC50 [3]: < 100 nM
- EC50 [4]: < 100 nM
- EC50 [5]: < 100 nM

SMILES: CC1(C)Cc2sc(NC(=O)Cc3ccc(S(N)(=O)=O)cc3)c(C#N)c2CN1CC1CC(F)(F)C1 [Example 77, N-(3-cyano-5-((3,3-difluorocyclobutyl)methyl)-6,6-dimethyl-4,5,6,7-tetrahydrothieno[3,2-c]pyridin-2-yl)-2-(4-sulfamoylphenyl)acetamide]
- EC50 [1]: < 100 nM
- Log DENV-2 viremia reduction (DENV-2 (strain TSV01) [2]; 30 mg/kg b.i.d.): 0.62 Log
- EC50 [3]: < 100 nM
- EC50 [4]: 100 to 1000 nM
- EC50 [5]: < 100 nM

SMILES: COc1cc(CC(=O)Nc2sc3c(c2C#N)CN(CC2CCCCC2)CC3)ccc1S(N)(=O)=O [Example 83, N-(3-cyano-5-(cyclohexylmethyl)-4,5,6,7-tetrahydrothieno[3,2-c]pyridin-2-yl)-2-(3-methoxy-4-sulfamoylphenyl)acetamide]
- Log DENV-2 viremia reduction (DENV-2 (strain TSV01) [2]; 30 mg/kg b.i.d.): 0.60 Log
- Log DENV-2 viremia reduction (DENV-2 (strain TSV01) [2]; 100 mg/kg q.d.): 0.94 Log

SMILES: N#Cc1c(NC(=O)Cc2ccc(S(N)(=O)=O)cc2)sc2c1CCN(Cc1cccc(F)c1)C2 [Example 100, N-(3-cyano-6-(3-fluorobenzyl)-4,5,6,7-tetrahydrothieno[2,3-c]pyridin-2-yl)-2-(4-sulfamoylphenyl)acetamide]
- Log DENV-2 viremia reduction (DENV-2 (strain TSV01) [2]; 100 mg/kg b.i.d.): 1.50 Log

SMILES: N#Cc1c(NC(=O)Cc2ccc(S(N)(=O)=O)cc2)sc2c1CCN(Cc1cc(Cl)ccc1Cl)C2 [Example 109, N-(3-cyano-6-(2,5-dichlorobenzyl)-4,5,6,7-tetrahydrothieno[2,3-c]pyridin-2-yl)-2-(4-sulfamoylphenyl)acetamide]
- EC50 [1]: 100 to 1000 nM
- Log DENV-2 viremia reduction (DENV-2 (strain TSV01) [2]; 100 mg/kg b.i.d.): 1.60 Log
- EC50 [3]: 100 to 1000 nM
- EC50 [4]: > 1000 nM
- EC50 [5]: 100 to 1000 nM

From patent US12012417B2, “N-substituted tetrahydrothienopyridine derivatives and uses thereof” (NOVARTIS AG, priority 2018, dated 2024)
